Results reported in paper PMC6425379, “Pharmacokinetic Study and Tissue Distribution of Lorlatinib in Mouse Serum and Tissue Samples by Liquid Chromatography-Mass Spectrometry” (Journal of Analytical Methods in Chemistry, 2019).
Read-outs that look alike come from different tables or passages of the source.

Assays:
[1] = Pharmacokinetic study of lorlatinib in mouse serum after oral administration (LC-MS/MS, noncompartmental model); type: in vivo, Kun Ming mice; conditions: mice, 10 mg/kg
Procedure: (§1) All the animal-related experiments were performed in accordance with guidelines of Institutional Experimental Animal Ethical Committee. Kun Ming mice (18–20 g) were obtained from the Beijing HFK Bioscience Co., Ltd. (Beijing, China). All mice were given free access to normal diet and water during the experiment with an exception that mice were fasted for 12 h prior to drug administration.
In order to make all serum samples fall within the range suitable for testing, 10 μL of serum sample was diluted to 100 μL with blank serum. The diluted serum sample was evenly mixed using vortex-mixing. A mixture sample was prepared by adding 200 μL of IS working solution (10 ng/mL) to 20 μL of diluted serum sample, and the mixture was vortex-mixed for 3 min. In order to extract lorlatinib, the supernatant was obtained by centrifugation (11,000 rpm, 15 min, 4°C). Then, 100 μL of supernatant was diluted to 200 μL with purified water, and the mixture was immediately vortex-mixed for 3 min.
(§2) The mice were orally administered with 10 mg/kg lorlatinib. Blood and tissue samples were collected from mice at 0.5, 1, 2, 4, 8, and 24 h after administration. The blood samples were transferred into glass containers and clotted at room temperature for 1 h. Once the clot was formed, blood sample was centrifuged at 4,000 rpm for 10 min, and supernatant was collected. The serum was transferred into another tube and stored at −80°C prior to further analysis. Tissue samples were rinsed by physiological saline, and then excess physiological saline was blotted up. The tissue samples were transferred into PP plastic bags and stored at −80°C until further detection.
(§3) The pharmacokinetic parameters of lorlatinib were estimated with noncompartment model by DAS (Data Analysis System) software (version 3.0, BioGuider Co., Shanghai, China). Moment analysis was used as a noncompartmental approach to obtain various pharmacokinetic parameters. Noncompartmental approach allowed the estimation of pharmacokinetic parameters without assuming any structural properties of the pharmacokinetic behavior of lorlatinib. The area under the curve (AUC) and the first moment curve (AUMC) were calculated by using the linear trapezoidal method, which is required by FDA. The half-life (t1/2) was estimated as MRT multiplied by 0.693. Cmax was defined as maximal concentration, and Tmax was defined as the time at which the Cmax was observed. The tissue distribution was described by quantifying lorlatinib in various tissues at 0.5, 1, 2, 4, 8, and 24 h after administration. All data were summarized to calculate means and standard deviations, and then the concentration-time curve was plotted.

[2] = Tissue distribution of lorlatinib in mice after oral administration (LC-MS/MS); type: in vivo, Kun Ming mice; conditions: 10 mg/kg; for concentration at 0.5 h: Kun Ming, mouse
Procedure: as §1
Tissue samples were weighed, and methanol was added to tissue samples at a ratio of methanol: tissue = 2 mL: 100 mg. Subsequently, tissue samples were homogenized using a high-throughput tissue homogenizer and vortex-mixed for 3 min. Supernatant was obtained by centrifuging at 11,000 rpm for 15 min. Then, 400 μL of 40 ng/mL IS solution was added to 100 μL supernatant. After vortex-mixing, supernatant was isolated by centrifugation.
as §2, §3

Structure (SMILES): C[C@H]1Oc2cc(cnc2N)-c2c(nn(C)c2C#N)CN(C)C(=O)c2ccc(F)cc21 [Lorlatinib]
- concentration at 24 h ([1]; Kun Ming, mouse, 24 h after administration): 20.9 ± 1.07 ng/mL
- Cmax ([1]; Kun Ming, mouse, n=8, mean): 2710 ng/mL
- Tmax ([1]; Kun Ming, mouse, n=8, mean): 0.625 h
- half-life ([1]; Kun Ming, mouse, n=8, mean, read-out: t1/2z (converted)): 3.26 h
- maximal serum concentration ([1]; mean ± SD): 2,705.683 ± 539.779 μg/L
- AUC(0–∞) ([1]; n=8, mean): 16208.177 ug/L ∗ h
- AUMC(0–∞) ([1]; n=8, mean): 78840.738 h ∗ h ∗ ug/L
- time at which the maximum concentration appeared in each tissue ([2]; each tissue): 0.5 h
- concentration at 0.5 h ([2]; brain, read-out: concentration in brain): 1850 ng/g
- concentration at 0.5 h ([2]; heart, read-out: concentration in heart): 3670 ng/g
- concentration at 0.5 h ([2]; kidney, read-out: concentration in kidney): 5490 ng/g
- concentration at 0.5 h ([2]; large intestine, read-out: concentration in large intestine): 2900 ng/g
- concentration at 0.5 h ([2]; liver, read-out: concentration in liver): 31500 ng/g
- concentration at 0.5 h ([2]; lung, read-out: concentration in lung): 3090 ng/g
- concentration at 0.5 h ([2]; small intestine, read-out: concentration in small intestine): 5410 ng/g
- concentration at 0.5 h ([2]; spleen, read-out: concentration in spleen): 2470 ng/g
- concentration at 0.5 h ([2]; stomach, read-out: concentration in stomach): 21600 ng/g
